Our source for the IC50 values is patent US20250145665A1, “MACROCYCLIC PEPTIDES USEFUL AS MODULATORS OF TNF ALPHA” (Bristol-Myers Squibb Company, priority 2023, published 2025).

Structures are written as SMILES. Starred links: 1 amine or outer side, 2 acyl side, 3 side chain; linkers in the order of their positions; H or OH if unused. Positions of bridges follow the written chain, without caps; N, C: chain ends. Non-standard residues stand in square brackets, D forms with d. Residues, ends and D or L forms follow the SMILES beside them. ξ: configuration not given here. X2 = O=C(O)c1ccc(CNC(=O)c2cccc(-c3ccc(C[C@H](N[*:1])C(=O)[*:2])cc3)c2)cc1; X5 = Cn1nc(C(=O)Nc2ccc(-c3ccc(C[C@H](N[*:1])C(=O)[*:2])cc3)cc2)c2ccccc21; Bip(4'-COOH) = N[C@@H](Cc1ccc(-c2ccc(C(=O)O)cc2)cc1)C(=O)O; Bip(4'-NHAc) = CC(=O)Nc1ccc(-c2ccc(C[C@H](N)C(=O)O)cc2)cc1; X85 = N=C(N)c1cccc(C[C@H](N[*:1])C(=O)[*:2])c1; Bip = N[C@@H](Cc1ccc(-c2ccccc2)cc1)C(=O)O; Ala(2-furyl) = N[C@@H](Cc1ccco1)C(=O)O; Ala(4-THP) = N[C@@H](CC1CCOCC1)C(=O)O; 2Pal = N[C@@H](Cc1ccccn1)C(=O)O; Cha = N[C@@H](CC1CCCCC1)C(=O)O; Chg = N[C@H](C(=O)O)C1CCCCC1; Tle = CC(C)(C)[C@H](N)C(=O)O; ξV = CC(C)C(N)C(=O)O; Sar = CNCC(=O)O

Chain of TNFα (P01375 77-233 limits assumed): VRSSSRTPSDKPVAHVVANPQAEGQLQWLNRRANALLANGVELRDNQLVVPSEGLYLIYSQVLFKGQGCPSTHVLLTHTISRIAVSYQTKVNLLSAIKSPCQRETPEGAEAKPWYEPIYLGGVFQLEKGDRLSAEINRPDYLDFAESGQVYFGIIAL

The assay has as its target TNFα (Homo sapiens, UniProt P01375). Description: TNF-Induced HEK-Blue Assay. Format: cell-based. To be noted: HEK-Blue-CD40L cells, NF-kB-driven secreted alkaline phosphatase reporter; TNFα 0.5 ng/ml; 18 h; read-out: TNF induced HEK-Blue assay IC50 value.
In the case of `CC[C@H](C)[C@@H]1NC(=O)[C@@H]2CCCN2C(=O)[C@H]([C@@H](C)CC)NC(=O)[C@@H](CCCNC(=N)N)NC(=O)[C@H](CC(=O)O)NC(=O)[C@H](Cc2ccccn2)NC(=O)CN(C)C(=O)[C@H](Cc2ccc(-c3ccc(NC(C)=O)cc3)cc2)NC(=O)[C@H](Cc2ccc(-c3ccccc3)cc2)NC(=O)[C@H](C(C)(C)C)NC(=O)CSC[C@@H](C(=O)NCC(N)=O)NC(=O)[C@H](CC(C)C)NC(=O)[C@H](Cc2cccc(C(=N)N)c2)NC1=O` [Example 297] ({CH2CO}-[Tle][Bip][Bip(4'-NHAc)][Sar][2Pal]D[dR]IPI[X85]LCG-NH2; thioether N-13), the half-inhibitory concentration (IC50) was less than 50 nM.
As to `CC[C@H](C)[C@@H]1NC(=O)[C@@H]2CCCN2C(=O)[C@H]([C@@H](C)CC)NC(=O)[C@@H](CCCNC(=N)N)NC(=O)[C@H](CC(=O)O)NC(=O)[C@H](Cc2ccco2)NC(=O)CN(C)C(=O)[C@H](Cc2ccc(-c3ccc(NC(C)=O)cc3)cc2)NC(=O)[C@H](Cc2ccc(-c3ccccc3)cc2)NC(=O)[C@H](C(C)(C)C)NC(=O)CSC[C@@H](C(=O)NCC(N)=O)NC(=O)[C@H](CC(C)C)NC(=O)[C@H](Cc2ccc(O)cc2)NC1=O` [Example 298] ({CH2CO}-[Tle][Bip][Bip(4'-NHAc)][Sar][Ala(2-furyl)]D[dR]IPIYLCG-NH2; thioether N-13), the IC50 lay in the range of 50 to 200 nM.
The figure for `CC[C@H](C)[C@@H]1NC(=O)[C@@H]2CCCN2C(=O)[C@H]([C@@H](C)CC)NC(=O)[C@@H](CCCNC(=N)N)NC(=O)[C@H](CC(=O)O)NC(=O)[C@@H]2CCCN2C(=O)CN(C)C(=O)[C@H](Cc2ccc(-c3ccc(NC(C)=O)cc3)cc2)NC(=O)[C@H](Cc2ccc(-c3ccc(C(=O)O)cc3)cc2)NC(=O)[C@H](C(C)(C)C)NC(=O)CSC[C@@H](C(=O)NCC(N)=O)NC(=O)[C@H](CC(C)C)NC(=O)[C@H](Cc2ccc(O)cc2)NC1=O` [Example 300] ({CH2CO}-[Tle][Bip(4'-COOH)][Bip(4'-NHAc)][Sar]PD[dR]IPIYLCG-NH2; thioether N-13) is 50 to 200 nM; for `CC(=O)Nc1ccc(-c2ccc(C[C@@H]3NC(=O)[C@H](Cc4ccc(-c5ccccc5)cc4)NC(=O)[C@H](CC4CCCCC4)NC(=O)CSC[C@@H](C(=O)NCC(N)=O)NC(=O)[C@H](CC(C)C)NC(=O)[C@H](Cc4cnc[nH]4)NC(=O)[C@H](C4CCCCC4)NC(=O)[C@@H]4CCCN4C(=O)[C@H](CC(N)=O)NC(=O)[C@@H](CCCNC(=N)N)NC(=O)[C@H](CC(=O)O)NC(=O)[C@H](Cc4cnc[nH]4)NC(=O)CN(C)C3=O)cc2)cc1` [Example 301] ({CH2CO}-[Cha][Bip][Bip(4'-NHAc)][Sar]HD[dR]NP[Chg]HLCG-NH2; thioether N-13) it is 50 to 200 nM.
The same measure for `CC(C)C[C@@H]1NC(=O)[C@H](CCCNC(=N)N)NC(=O)C(C(C)C)NC(=O)[C@@H]2CCCN2C(=O)[C@H](C(C)C)NC(=O)[C@@H](CCCNC(=N)N)NC(=O)[C@H](CC(=O)O)NC(=O)[C@@H]2CCCN2C(=O)CN(C)C(=O)[C@H](Cc2ccc(-c3cccc(C(=O)NCc4ccc(C(=O)O)cc4)c3)cc2)NC(=O)[C@H](Cc2ccc(-c3ccccc3)cc2)NC(=O)[C@H](CC2CCOCC2)NC(=O)CSC[C@@H](C(=O)NCC(N)=O)NC1=O` (stereo partly drawn) [Example 303] ({CH2CO}-[Ala(4-THP)][Bip][X2][Sar]PD[dR]VP[ξV]RLCG-NH2; thioether N-13): 200 to 2000 nM; for `CC(C)C[C@@H]1NC(=O)[C@H](CCCNC(=N)N)NC(=O)[C@H](C(C)C)NC(=O)[C@@H]2CCCN2C(=O)[C@H](C(C)C)NC(=O)[C@@H](CCCNC(=N)N)NC(=O)[C@H](CC(=O)O)NC(=O)[C@@H]2CCCN2C(=O)CN(C)C(=O)[C@H](Cc2ccc(-c3ccc(NC(=O)c4nn(C)c5ccccc45)cc3)cc2)NC(=O)[C@H](Cc2ccc(-c3ccccc3)cc2)NC(=O)[C@H](CC2CCOCC2)NC(=O)CSC[C@@H](C(=O)NCC(N)=O)NC1=O` [Example 304] ({CH2CO}-[Ala(4-THP)][Bip][X5][Sar]PD[dR]VPVRLCG-NH2; thioether N-13): less than 50 nM.
